{"source": "patent US11865103B2", "about": "“Methods of treating disorders associated with glycosylation defective proteins” (CASE WESTERN RESERVE UNIVERSITY, priority 2016, dated 2024)", "system": "hair cells of hCLRN1^N48K-YFP; clrn1^KO/KO larvae", "assay": "Extracellular microphonic potentials of lateral line neuromast hair cells", "format": "in vivo, zebrafish", "settings": "0.4 uM ART 4 hours/day from 3 dpf to 6 dpf; recorded at 6 dpf; untreated 7.286", "procedure": "Zebrafish larvae at 6 dpf were anesthetized using MS-222 (Sigma-Aldrich) dissolved in a standard bath solution containing 120 mM NaCl, 2 mM KCl, 10 mM HEPES, 2 mM CaCl2, and 0.7 mM NaH2PO4 adjusted to pH 7.2. The larvae were then secured in a recording chamber using dental floss tie downs (Ricci and Fettiplace, 1997). Their blood flow and heart rate were visually observed to assess viability using an upright Olympus BX51WI microscope. Recordings were made with a PC-505B amplifier (Warner Instruments) and a PCI-6221 digitizer (National Instruments). Images were taken with a Grasshopper3 CMOS camera (Point Grey) and processed with software provided by the manufacturer. To record the activity of hair cells from the lateral line neuromasts, the cupula of neuromasts were deflected with a fluid jet placed ˜50 μm from the neuromast (Trapani and Nicolson, 2010) and controlled by an HSPC-1 (ALA Scientific Instruments) that delivered sinusoidal stimuli of 50 Hz. Microphonic potentials were recorded at room temperature (22° C.). […] Microphonic potentials were recorded using a jClamp for Windows (SciSoft, license: Joseph Santos-Sacchi, Yale University, New Haven, CT) in current-clamp mode, amplified by 20 (SIM983; Stanford 37 Research), and low-pass filtered at 200 Hz. […]", "data": [{"smiles": "C[C@@H]1CC[C@H]2[C@@H](C)C(=O)O[C@@H]3O[C@@]4(C)CC[C@@H]1[C@]32OO4", "note": "[ART, Artemisinin]", "values": [{"measurement": "Extracellular microphonic potentials (Mean±SEM)", "result": 9.529, "unit": "μV"}]}]}
